In US12668610B2, “Compounds for drug delivery across blood-brain barrier” (University of Houston System, priority 2020, dated 2026):
Numbered stars: 1 amine (or outer) side, 2 acyl side, 3 side chain; on linkers, the order of the positions; unused ones are H or OH. Square brackets hold non-standard residues; d marks the D form. Peptide text beside a SMILES is read from it. N((CH2)3OiPr)Gly = CC(C)OCCCNCC(=O)O; X1 = CC(c1ccccc1)N(CC(=O)[*:2])[*:1]; Nleu = CC(C)CNCC(=O)O; Nlys = NCCCCNCC(=O)O; Nme = COCCNCC(=O)O

Tests used:
[1] = Solubility in water by titration; format: physicochemical; details: deionised water; DI water
Experimental: Solubility of TRBP-6 peptoid was determined by titration. Briefly, a precise amount (5 mg) of TRBP-6 was measured in a transparent 1.5 ml Eppendorf tube. DI water was added dropwise (˜5 μl/drop) into the tube until the solids were completely dissolved and the solution was clear. Solubility was calculated as the ratio of quantity of peptoid and the total volume of DI water. […] The solubility of TRBP6 in water is shown below.

[2] = system: transferrin receptor positive HeLa cells; test: Validation of on-bead two-color binding with resynthesized compound on TentaGel beads; format: cell-based, human; details: 1.0 hour at room temperature, fluorescence microscope
Experimental: The on-bead two-color combinatorial cell-screening was validated by resynthesizing the compounds on tentagel beads and incubating them with transferrin receptor positive HeLa cells and transferrin receptor negative Hela cells separately as well as a mixture of these cells. The beads specifically bound with the transferrin receptor positive HeLa cells. Results are shown in FIG. 3, with the cells shown on the left column and the beads containing TRBP6 after incubation with the cells shown in the right column.
Nearly 50,000 peptoid library beads were washed two times in DMEM medium containing 10% FBS (media) and then incubated in 1.0 ml (DMEM+10% FBS) for 1.0 hour in a polypropylene tube. Transferrin receptor positive HeLa cells and transferrin receptor negative HeLa cells were removed from culture plates with GIBCO enzyme free cell dissociation buffer 2.0 ml per plate for 20 minutes at 37° C. Cells were washed and suspended in DMEM+10% FBS media. Cells were counted and distributed in 1.5 ml microcentrifuge tubes with 1.0×10^6 cells in 1.0 ml of media. Then the cell labeling procedure was conducted as follows: 1.0 μl each of Qtracker reagent A and B were mixed in a 1.5 ml microcentrifuged tubes and incubated for 5.0 minutes at room temperature. […] Labeled cells were visualized with long-pass filter of BX-51 fluorescence microscope (Olympus, PA) with a color camera. […]

[3] = In vivo biodistribution study of Cy5.5-labeled peptoids in CD-1 mice (IVIS imaging)
Experimental: The activity of these compounds to deliver Cy5.5 fluorescent dye into the brains of mice was investigated. […] The Cy5.5 labeled peptoids or Cy5.5-Ang peptide were injected intravenously to CD-1 mice (25 nmol/mouse, n=4 per compound) and imaged using IVIS imager. The mice were sacrificed at 30 minutes, the heart was perfused with 10 mL of PBS, blood and organs were collected for ex vivo imaging.
Biodistribution of Cy5.5-labeled peptoids and control Cy5.5-Ang was performed on healthy female CD-1 mice (6-8 weeks old, n=4 per group). Fluorescently labeled peptoids and Cy5.5-Ang were prepared in 100 μl saline (25 nmol of Cy5.5-TRBP in 100 μl saline per mouse) were injected intravenously via tail vein into mice. The whole body imaging of fluorescence signal was measured at 5, 15 and 30 min using the IVIS Spectrum in vivo imaging system (PerkinElmer). At 30 min, mice were euthanized and brain was perfused with 10 mL of 10% heparinized PBS at […] flow rate via left ventricle of mice. A small incision to the right atrium was made using iris scissors before perfusion. After brain perfusion, the vital organs (brain, heart, lung, liver, spleen also blood and plasma) were collected for ex vivo imaging. The fluorescence intensity was measured at wavelength with an excitation of 660 nm and maximum emission at 710 nm. The organ region of interest (ROI) was measured and analyzed using Living image software. Data of the experiments were expressed as mean±SD and analyzed by One-way ANOVA with Dunnett's multiple comparison test. The statistical analysis was done in Graphpad Prism (Graphpad Inc., version 7.04), the results were considered statistically significant if p<0.05.

[4] = Stability in human plasma (HPLC); format: in vitro ADME; details: 37° C.
Experimental: (§1) HPLC Analysis. RP-HPLC was conducted on an LC-20A liquid chromatographic system (Shimadzu, Japan). In detail, the HPLC system consisted of a Shimadzu LC-20AD solvent delivery pump, a SIL-20A auto-sampler, and a Shimadzu SPD-M20A UV/Vis detector. The TRBP-6 peptoid was analyzed using a Phenomenex® HPLC C18 column (250×4.6 mm, 5 μm) at room temperature. The mobile phase was composed of solvent A (0.1% TFA in water) and solvent B (0.1% TFA in acetonitrile, TFA: trifluoroacetic acid). An aliquot of 10 μl of TRBP-6 peptoid solution (350 μg/ml in ACN:H2O, 1:1) was injected into HPLC system. An isocratic method with flow rate of 1 ml/min was applied in 30% B for 15 min for TRBP-6. The detection wavelength was set to 220 nm. The data was acquired and processed with LabSolutions version 5.92. HPLC chromatograms for TRBP-6 are shown in FIG. 10, namely (A) PDA Chromatogram, and (B) PDA Spectrum. FIG. 10(A) is a RP-HPLC chromatogram of TRBP-6 (retention time tR=4.904 min) obtained by above HPLC method to illustrate the purity of the synthesized TRBP-6. FIG. 10(B) is a plot of UV absorbance spectrum of TRBP-6 obtained from injecting TRBP-6 into the HPLC column to show the wavelength of maximum UV absorbance of TRBP-6 (λmax=216 nm). Stability in PBS pH 7.4.
TRBP-6 peptoid solution with a concentration of 5 mg/ml in PBS was diluted to 1.4 mg/ml by human plasma. After incubation at 37° C. in human plasma for 0, 1, 3, 6, 9 and 24 h, 50 μl of the mixture was quenched with 150 μl of cold acetonitrile and centrifuged at […]×20 min. The supernatant (100 μl) was detected by HPLC. The assay was performed in triplicates.

[5] = Stability in PBS pH 7.4 (HPLC); format: physicochemical; details: 37° C., 350 μg/ml
Experimental: as §1
TRBP-6 peptoid was diluted with PBS pH 7.4 to 350 μg/ml. The solution was incubated in the water bath at 37° C. with gentle shaking. The aliquots (50 μl) were withdrawn from the TRBP-6 solution at different time intervals (0, 1, 3, 6, 9, 24 h). At each time point, 10 μl of solution was injected into HPLC for analysis. To examine the reproducibility, the experiments were carried out in triplicate.

transferrin receptor = target: T1, transferrin receptor (Homo sapiens, UniProt P02786); test: In vitro pull-down assay with compound-conjugated beads and western blot; format: binding; details: lysates of transferrin receptor positive or negative HeLa cells, compound-conjugated beads, 4° C. overnight, western blot anti-hTfR
T1 construct: Cell lysates from HeLa cells with transferrin receptor expression or transferrin receptor knockdown were extracted using RIPA buffer; endogenous in cells; host or cells: HeLa (ATCC)
T1 sequence (P02786 whole entry): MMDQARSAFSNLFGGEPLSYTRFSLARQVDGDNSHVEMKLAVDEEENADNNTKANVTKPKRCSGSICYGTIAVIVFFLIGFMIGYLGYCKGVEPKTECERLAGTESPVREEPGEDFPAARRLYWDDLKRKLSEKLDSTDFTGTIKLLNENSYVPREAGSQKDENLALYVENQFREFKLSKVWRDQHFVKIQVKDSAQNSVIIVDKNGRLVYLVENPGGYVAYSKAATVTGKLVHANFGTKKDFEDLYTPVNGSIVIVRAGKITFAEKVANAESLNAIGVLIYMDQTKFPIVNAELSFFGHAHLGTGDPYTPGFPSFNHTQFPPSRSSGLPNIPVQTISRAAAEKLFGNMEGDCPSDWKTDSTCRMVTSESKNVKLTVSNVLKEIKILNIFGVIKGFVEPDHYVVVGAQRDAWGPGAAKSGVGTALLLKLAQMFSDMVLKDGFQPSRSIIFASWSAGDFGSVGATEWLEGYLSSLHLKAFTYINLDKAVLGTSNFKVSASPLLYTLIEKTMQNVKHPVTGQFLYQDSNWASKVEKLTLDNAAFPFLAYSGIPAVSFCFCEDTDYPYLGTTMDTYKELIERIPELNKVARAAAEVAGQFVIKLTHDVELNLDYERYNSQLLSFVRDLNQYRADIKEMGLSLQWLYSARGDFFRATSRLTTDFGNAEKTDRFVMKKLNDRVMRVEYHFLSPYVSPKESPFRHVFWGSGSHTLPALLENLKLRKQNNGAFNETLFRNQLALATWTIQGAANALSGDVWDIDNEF
Experimental: The binding of three exemplary compounds to the transferrin receptor was confirmed in a pull-down assay. Cell lysates from transferrin receptor positive or negative HeLa cells were extracted using RIPA buffer, and subsequently incubated with TRBP3, TRBP5, or TRBP6 conjugated beads at 4° C. overnight. The beads were then washed with RIPA buffer for 3 times, and the binding proteins were eluted with 1% SDS. The yielded lysates were then applied onto 10% SDS-PAGE gel and subjected to western blotting analysis with antibody against transferrin receptor.
Cell lysates from HeLa cells with transferrin receptor expression or transferrin receptor knockdown were extracted using RIPA buffer (Alfa Aesar) supplemented with protease inhibitors (Roche), and subsequently incubated with TRBP6, TRBP3, and TRBP5 conjugated beads at 4° C. overnight. The beads were then washed with RIPA buffer for 3 times, and the binding proteins were eluted with 1% SDS at 95° C. for 5 mins. The yielded lysates were then mixed with 4× Laemmli Sample Buffer (loading buffer) (Bio-Rad). […]
Cells were lysed in RIPA buffer (1% NP-40, 0.5% sodium deoxycholate, 0.1% SDS in PBS). […] Protein concentration was determined by Bio-Rad DC protein assay (Bio-Rad). […] Signals of targeted proteins were detected by the Immun-Star HRP peroxide Luminol/Enhancer (Bio-Rad) and recorded on ChemiDoc Touch Imaging System (Bio-Rad). […]

With `COCCN(CC(=O)NC(CCCCN)C(=O)NC(CCSC)C(N)=O)C(=O)CN(CC(C)C)C(=O)CN(C(=O)CN(CCCCN)C(=O)CN(CCCOC(C)C)C(=O)CNCCCCN)C(C)c1ccccc1` (stereo not shown) [TRBP6] (H-[Nlys][N((CH2)3OiPr)Gly][Nlys][X1][Nleu][Nme]KM-NH2; configuration not given here) the solubility [1] was greater than 496 mg/mL, the “binding of beads to transferrin receptor positive (red) vs negative (green) HeLa cells” value [2] was “only showed binding with red cells but not with green cells” and the “efficacy of brain delivery compared with other compounds including Angiopep-2 (Ang) peptide” value ([3]; 25 nmol/mouse intravenously) was “much higher than other compounds”. The “delivery of Cy5.5 into the brain” value ([3]; 25 nmol/mouse intravenously, imaging 5, 15, 30 min and ex vivo after perfusion) was “effectively delivered Cy5.5 into the brain”, the “efficiency in brain delivery compared with other compounds including Ang peptide” value ([3]; 30 minutes after injection, 25 nmol/mouse i.v.) was “superior efficiency than other compounds” and the “TRBP-6 amount remains (%) in human plasma” value ([4]; 0 h, 1.4 mg/ml) was 100.0 ± 1.2%. For the same compound, the “stability (overall statement)” value ([4]; PBS pH 7.4 and human plasma, up to 24 h) was “excellent stability”, the remaining at 1 h, 1.4 mg/ml ([4]; human, human plasma, 1 h, 1.4 mg/ml, read-out: TRBP-6 amount remains (%) in human plasma) was 99.5 ± 3.5% and the remaining at 3 h, 1.4 mg/ml ([4]; human, human plasma, 3 h, 1.4 mg/ml, read-out: TRBP-6 amount remains (%) in human plasma) was 94 ± 2.1%. For the same compound, the remaining at 6 h, 1.4 mg/ml ([4]; human, human plasma, 6 h, 1.4 mg/ml, read-out: TRBP-6 amount remains (%) in human plasma) was 93 ± 5.3%, the remaining at 9 h, 1.4 mg/ml ([4]; human, human plasma, 9 h, 1.4 mg/ml, read-out: TRBP-6 amount remains (%) in human plasma) was 92 ± 2.9% and the remaining at 24 h, 1.4 mg/ml ([4]; human, human plasma, 24 h, 1.4 mg/ml, read-out: TRBP-6 amount remains (%) in human plasma) was 90.3 ± 4.7%. The “TRBP-6 amount remains (%) in PBS pH 7.4” value ([5]; 0 h) was 100.0 ± 2.4%, the “TRBP-6 amount remains (%) in PBS pH 7.4” value ([5]; 1 h) was 98.9 ± 6.5% and the “TRBP-6 amount remains (%) in PBS pH 7.4” value ([5]; 3 h) was 95.5 ± 3.3%. For the same compound, the “TRBP-6 amount remains (%) in PBS pH 7.4” value ([5]; 6 h) was 94.6 ± 2.3%, the “TRBP-6 amount remains (%) in PBS pH 7.4” value ([5]; 9 h) was 92.7 ± 0.2% and the “TRBP-6 amount remains (%) in PBS pH 7.4” value ([5]; 24 h) was 91.3 ± 3.8%. For the same compound, the “binding to the transferrin receptor in pull-down assay” value (transferrin receptor) was “confirmed”.
